Source: article PMC9090415, “Discovery of small molecule inhibitors of Plasmodium falciparum apicoplast DNA polymerase” (Journal of Enzyme Inhibition and Medicinal Chemistry, 2022)
Where two headings read alike, the source gives them in different places.

Legend:
[1] = target: P. falciparum apicoplast DNA polymerase (Pf-apPOL) (Plasmodium falciparum, UniProt Q8ILY1); experiment: Fluorescence-based high-throughput DNA polymerase assay (molecular beacon), primary screen and dose-response; format: biochemical
P. falciparum apicoplast DNA polymerase (Pf-apPOL), sequence (Q8ILY1 entry or part of it): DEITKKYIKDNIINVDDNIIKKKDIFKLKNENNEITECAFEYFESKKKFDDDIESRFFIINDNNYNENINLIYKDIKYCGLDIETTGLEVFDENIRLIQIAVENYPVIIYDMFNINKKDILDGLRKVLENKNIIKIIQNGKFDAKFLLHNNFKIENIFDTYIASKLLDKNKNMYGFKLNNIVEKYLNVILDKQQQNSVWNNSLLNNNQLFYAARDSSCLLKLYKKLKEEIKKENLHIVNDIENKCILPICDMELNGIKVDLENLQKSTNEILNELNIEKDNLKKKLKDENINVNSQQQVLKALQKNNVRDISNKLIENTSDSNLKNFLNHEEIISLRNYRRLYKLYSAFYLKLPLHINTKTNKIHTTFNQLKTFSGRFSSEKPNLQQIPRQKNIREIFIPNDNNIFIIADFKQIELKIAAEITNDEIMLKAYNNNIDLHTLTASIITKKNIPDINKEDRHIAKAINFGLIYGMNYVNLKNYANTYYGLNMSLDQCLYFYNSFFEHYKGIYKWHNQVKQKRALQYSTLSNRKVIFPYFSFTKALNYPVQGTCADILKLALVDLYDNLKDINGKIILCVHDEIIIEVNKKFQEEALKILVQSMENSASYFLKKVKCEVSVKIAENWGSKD
Method in brief: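 Single-point screening used 10 µM compound with 20 nM polymerase, 20 nM hairpin substrate and 6 µM dNTPs for 90 min at 25 °C. Confirmatory titrations (2.5–80 µM) followed fluorescence at three times, and IC50 was derived from a fit including a cooperativity term n.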

[2] = test system: chloroquine resistant P. falciparum parasites (strain Dd2); experiment: Parasite growth inhibition assay in human red blood cells (flow cytometry, acridine orange); format: cell-based; conditions: Plasmodium falciparum, Erythrocyte
Description: The chloroquine resistant P. falciparum parasites (strain Dd2) were cultured in de-identified, IRB-exempt human red blood cells (RBCs) obtained from the American Red Cross and parasite cultures were maintained as described. Parasitaemia (percentage of total RBCs infected) was measured by flow cytometry on an Attune NxT (ThermoFisher) by nucleic-acid staining of cultured RBCs with phosphate-buffered saline (PBS) containing 0.8 µg ml^−1 acridine orange. We began by determining percent growth inhibition at single compound dose (20 µM) for the 102 non-toxic compounds. […] The experiments were initiated with a starting parasitaemia of ∼1% and parasitaemia was measured 72 and 96 h post compound addition. Growth was normalised to parasite cultures with carrier only (DMSO).
(§1) We tested the ability of the 102 compounds to kill P. falciparum parasites cultured in human red blood cells. Due to the number of compounds, we used a single inhibitor concentration of 20 µM and performed experiments in triplicate. […] These compounds were then tested in a dose-response format against chloroquine resistant P. falciparum parasites (Dd2) and the resulting data were fit to a sigmoidal growth inhibition curve to determine EC50 values (Figure 5, Table 2). […] Finally, to determine if the compounds were killing the parasites solely via apicoplast disruption, the dose-response curves were also performed with 1 mM isopentylpyrophosphate (IPP) in the growth media (Table 2). […] Very little is known regarding mitochondrial DNA replication in P. falciparum; however, signal sequence identification algorithms have predicted that the other bacterial A-family DNA polymerase residing in P. falciparum is targeted to the mitochondria (PF3D7_0625300)[29]. […] We are currently in the process of cloning and expressing this putative mitochondrial DNA polymerase to determine the effect of these compounds on its activity.

[3] = target: Babesia bovis apicoplast DNA polymerase (Bb-apPOL); experiment: In vitro DNA polymerase inhibition assay, Bb-apPOL; format: biochemical; conditions: Table 2
Description: (§2) Codon-optimized, exonuclease-deficient Pf-apPOL was overexpressed in E. coli BL21 (DE3) and purified as described. The protein was dialysed against two, 1-liter changes of 20 mM Tris-HCl (pH 8.0), 400 mM NaCl, and 20% glycerol. Plasmodium bergei and Babesia bovis apPOLs (Pb-apPOL and Bb-apPOL, respectively) were codon-optimized, expressed, and purified as for Pf-apPOL[15]. Bacteriophage T4 DNA polymerase was purified as described. The DNA oligonucleotides used to make the high-throughput substrate were obtained from Integrated DNA Technologies. Deoxynucleotides were purchased from Strategene. All other materials came from Fisher Scientific.
as §1

[4] = target: T1, P. berghei apicoplast DNA polymerase (Pb-apPOL) (Plasmodium berghei, UniProt A0A509ALK1); experiment: In vitro DNA polymerase inhibition assay, Pb-apPOL; format: biochemical; conditions: Table 2
T1 sequence (A0A509ALK1 1182-1809): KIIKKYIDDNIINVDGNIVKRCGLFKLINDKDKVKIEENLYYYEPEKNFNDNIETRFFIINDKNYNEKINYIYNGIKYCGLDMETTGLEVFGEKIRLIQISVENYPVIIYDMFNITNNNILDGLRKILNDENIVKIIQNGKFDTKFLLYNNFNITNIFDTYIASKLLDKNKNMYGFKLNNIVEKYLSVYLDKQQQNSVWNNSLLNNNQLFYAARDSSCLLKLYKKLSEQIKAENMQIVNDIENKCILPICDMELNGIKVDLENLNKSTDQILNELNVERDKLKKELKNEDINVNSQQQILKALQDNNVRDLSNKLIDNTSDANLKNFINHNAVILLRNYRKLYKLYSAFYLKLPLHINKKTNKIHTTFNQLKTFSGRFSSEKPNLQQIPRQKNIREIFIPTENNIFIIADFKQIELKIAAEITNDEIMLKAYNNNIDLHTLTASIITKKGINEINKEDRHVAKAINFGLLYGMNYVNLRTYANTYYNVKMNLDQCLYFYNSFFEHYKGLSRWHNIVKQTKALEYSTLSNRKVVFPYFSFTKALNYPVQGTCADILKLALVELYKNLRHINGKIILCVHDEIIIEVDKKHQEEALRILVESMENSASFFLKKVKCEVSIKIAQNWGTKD
Description: as §2
The HT assay employs a molecular beacon, a stem-loop DNA template with a Cy3 dye and the Black Hole Quencher on the 3′ and 5′ ends of the DNA, respectively. Pf-apPOL concentration is based on a calculated absorptivity of ε280 = 56750 M^−1 cm^−1. Reactions were carried out at 25 °C, using Corning 3575 […] (well-volume, 20 µL). Assays testing for compound inhibition composed of reaction buffer (pH 7.9 in 50 mM potassium acetate, 20 mM Tris-acetate and 10 mM magnesium acetate), Pf-apPOL (20 nM), DNA substrate (20 nM), dNTPs (6 µM), and compound (10 µM in DMSO). The DNA and nucleotide substrates (dNTPs) were at concentrations of 20 nM and 6 µM, respectively, in the assay. Pf-apPOL was incubated in the reaction buffer with dNTPs and the compound of interest (10 µM, in the assay) at 25 °C for 10 min. The DNA substrate was then added and the reaction was allowed to proceed for 90 min at 25 °C.
In the above, Min is the average of fluorescence emission of the negative controls (substrate only), Max the average fluorescence emission from the positive controls (enzyme + substrate), and Test the emission from the assays in the presence of compounds (enzyme + compound + substrates). Dose-response confirmation assays were performed under similar conditions as the primary screen, but monitoring fluorescence at 10, 90, and 180 min. Tested concentrations of compounds were 2.5, 10, 20, 40, and 80 µM. The IC50 of each compound was determined using Equation (2): (2) […] Vmax/(1+ (I/IC50)^n)
We tested the ability of the 102 compounds to kill P. falciparum parasites cultured in human red blood cells. Due to the number of compounds, we used a single inhibitor concentration of 20 µM and performed experiments in triplicate. These single-dose assays identified 9 compounds that inhibited parasite growth by more than 50%. These compounds were then tested in a dose-response format against chloroquine resistant P. falciparum parasites (Dd2) and the resulting data were fit to a sigmoidal growth inhibition curve to determine EC50 values (Figure 5, Table 2). […] Inhibition of Pb-apPOL is a desired feature because it is likely that future in vivo studies will be performed in the mouse model for Malaria. […] The in vitro polymerase assays identified 5 compounds that were potent inhibitors of all three apicoplast polymerases and a single compound that inhibited Pf-apPOL and Bb-apPOL but not Pb-apPOL (Table 2). Finally, to determine if the compounds were killing the parasites solely via apicoplast disruption, the dose-response curves were also performed with 1 mM isopentylpyrophosphate (IPP) in the growth media (Table 2). […] At this time, it is unclear what the non-apicoplast target(s) may be. One intriguing possibility is that these compounds may be targeting both the apicoplast and the mitochondrial DNA polymerases. […]

[5] = read-out: IC50 Pf-apPOL, Table 2
[6] = supplemental file 2, sheet IC50 nontoxic compounds, Pf-apPOL
[7] = Dd2 parasites in human RBCs, dose-response, no IPP, read-out: EC50
[8] = Dd2 parasites, 1 mM isopentylpyrophosphate (IPP) in the growth media, read-out: EC50 + IPP

Row | SMILES | IC50 [1, 5] [µM] | IC50 [1, 6] [µM] | EC50 [2, 7] [µM] | EC50 [2, 8] [µM] | IC50 [3] [µM] | IC50 [4] [µM]
1 | CC(C)(C)c1cc(C(=O)C(C#N)=NNc2cccc(Cl)c2)no1 [Molecule 98] | 8 ± 2 | 8.45 | 16 ± 1 | 11 ± 1 | – | –
2 | O=[N+]([O-])/C=C/c1ccc(-c2ccc(Br)cc2)o1 [Molecule 31] | 15 ± 1 | 15.8 | 8.9 ± 0.5 | 8.7 ± 0.6 | 15 ± 5 | –
3 | O=[N+]([O-])c1ccc(/C=C/c2ccc3ccccc3n2)o1 [Molecule 21] | 8 ± 1 | 8.41 | – | – | – | 9.7 ± 1.6
4 | O=C1Nc2ccc(I)cc2C1=Cc1cc(Br)c(O)c(Br)c1 [Molecule 27] | 15 ± 1 | 15.6 | 10 ± 1 | 9 ± 1 | – | –
5 | Cn1nc(-c2nnc(-c3ccccc3F)o2)c2c1CCN(C(=O)c1ccccc1Cl)C2 [Molecule 34] | 7.2 ± 0.9 | 7.21 | 11.3 ± 0.9 | 10 ± 0.7 | – | –
